{
  "source": "ChEMBL document CHEMBL1201862",
  "about": "“PubChem BioAssay data set” (2004)",
  "assay_in_all_cases": "NCI-60 cell line screen, 48 h",
  "key": {"[1]": {"tested_on": "ACHN"}, "[2]": {"tested_on": "KM-20L2"}, "[3]": {"tested_on": "UACC-62"}, "[4]": {"tested_on": "NCI-H23"}, "[5]": {"tested_on": "OVCAR-8"}, "[6]": {"tested_on": "NCI-H226"}, "[7]": {"tested_on": "SN12C"}, "[8]": {"tested_on": "HCT-116"}, "[9]": {"tested_on": "A498"}, "[10]": {"tested_on": "CCRF-CEM"}, "[11]": {"tested_on": "SNB-19"}, "[12]": {"tested_on": "CAKI-1"}, "[13]": {"tested_on": "COLO 205"}, "[14]": {"tested_on": "HCT-15"}, "[15]": {"tested_on": "Malme-3M"}, "[16]": {"tested_on": "OVCAR-4"}, "[17]": {"tested_on": "KM12"}, "[18]": {"tested_on": "SK-MEL-5"}, "[19]": {"tested_on": "TK-10"}, "[20]": {"tested_on": "SK-MEL-2"}, "[21]": {"tested_on": "HOP-62"}, "[22]": {"tested_on": "SK-MEL-28"}, "[23]": {"tested_on": "EKVX"}, "[24]": {"tested_on": "DMS-114"}, "[25]": {"tested_on": "U-251"}, "[26]": {"tested_on": "OVCAR-5"}, "[27]": {"tested_on": "LXFL 529"}, "[28]": {"tested_on": "DMS-273"}, "[29]": {"tested_on": "SF-295"}, "[30]": {"tested_on": "M19-MEL"}, "[31]": {"tested_on": "RXF 393"}, "[32]": {"tested_on": "SR"}, "[33]": {"tested_on": "IGROV-1"}, "[34]": {"tested_on": "HT-29"}, "[35]": {"tested_on": "SK-OV-3"}, "[36]": {"tested_on": "K562"}, "[37]": {"tested_on": "A549"}, "[38]": {"tested_on": "LOX IMVI"}, "[39]": {"tested_on": "HCC 2998"}, "[40]": {"tested_on": "NCI-H460"}, "[41]": {"tested_on": "XF498"}, "[42]": {"tested_on": "M14"}, "[43]": {"tested_on": "HL-60"}, "[44]": {"tested_on": "786-0"}, "[45]": {"tested_on": "HOP-92"}, "[46]": {"tested_on": "MOLT-4"}, "[47]": {"tested_on": "OVCAR-3"}, "[48]": {"tested_on": "SNB-78"}, "[49]": {"tested_on": "SF-268"}, "[50]": {"tested_on": "RPMI-8226"}, "[51]": {"tested_on": "SNB-75"}, "[52]": {"tested_on": "HOP-18"}, "[53]": {"tested_on": "SW-620"}, "[54]": {"tested_on": "DLD-1"}, "[55]": {"tested_on": "SF-539"}, "[56]": {"tested_on": "UACC-257"}, "[57]": {"tested_on": "UO-31"}, "[58]": {"tested_on": "NCI-H522"}},
  "note": "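Dose response: 5 concentrations. Exposure: 48 h. Format: 96-well plates. Endpoint: linear interpolation; highest concentration if not reached. GI50 is the concentration that inhibits growth by half.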 Calls of active or inactive are those of the source. Cut-off read from the data, not from the text of the source: active = GI50 up to about 1.1 µM and inactive = higher.",
  "data": [
    {"smiles": "C(/COc1cccnc1)=N\\NC1=NCCN1", "values": [
      {"measurement": "GI50", "setting": "[1]", "value": "> 100 µM (inactive)"},
      {"measurement": "GI50", "setting": "[2]", "value": "> 100 µM (inactive)"},
      {"measurement": "GI50", "setting": "[3]", "value": "> 100 µM (inactive)"},
      {"measurement": "GI50", "setting": "[4]", "value": "> 100 µM (inactive)"},
      {"measurement": "GI50", "setting": "[5]", "value": "> 100 µM (inactive)"},
      {"measurement": "GI50", "setting": "[6]", "value": "> 100 µM (inactive)"},
      {"measurement": "GI50", "setting": "[7]", "value": "> 100 µM (inactive)"},
      {"measurement": "GI50", "setting": "[8]", "value": "> 100 µM (inactive)"},
      {"measurement": "GI50", "setting": "[9]", "value": "> 100 µM (inactive)"},
      {"measurement": "GI50", "setting": "[10]", "value": "> 100 µM (inactive)"},
      {"measurement": "GI50", "setting": "[11]", "value": "> 100 µM (inactive)"},
      {"measurement": "GI50", "setting": "[12]", "value": "> 100 µM (inactive)"},
      {"measurement": "GI50", "setting": "[13]", "value": "> 100 µM (inactive)"},
      {"measurement": "GI50", "setting": "[14]", "value": "> 100", "unit": "µM"},
      {"measurement": "GI50", "setting": "[15]", "value": "> 100 µM (inactive)"},
      {"measurement": "GI50", "setting": "[16]", "value": "> 100 µM (inactive)"},
      {"measurement": "GI50", "setting": "[17]", "value": "> 100 µM (inactive)"},
      {"measurement": "GI50", "setting": "[18]", "value": "> 100 µM (inactive)"},
      {"measurement": "GI50", "setting": "[19]", "value": "> 100 µM (inactive)"},
      {"measurement": "GI50", "setting": "[20]", "value": "> 100 µM (inactive)"},
      {"measurement": "GI50", "setting": "[21]", "value": "> 100 µM (inactive)"},
      {"measurement": "GI50", "setting": "[22]", "value": "> 100 µM (inactive)"},
      {"measurement": "GI50", "setting": "[23]", "value": "> 100 µM (inactive)"},
      {"measurement": "GI50", "setting": "[24]", "value": "> 100 µM (inactive)"},
      {"measurement": "GI50", "setting": "[25]", "value": "> 100 µM (inactive)"},
      {"measurement": "GI50", "setting": "[26]", "value": "> 100 µM (inactive)"},
      {"measurement": "GI50", "setting": "[27]", "value": "> 100 µM (inactive)"},
      {"measurement": "GI50", "setting": "[28]", "value": "> 100 µM (inactive)"},
      {"measurement": "GI50", "setting": "[29]", "value": "> 100 µM (inactive)"},
      {"measurement": "GI50", "setting": "[30]", "value": "> 100 µM (inactive)"},
      {"measurement": "GI50", "setting": "[31]", "value": "> 100 µM (inactive)"},
      {"measurement": "GI50", "setting": "[32]", "value": "> 100 µM (inactive)"},
      {"measurement": "GI50", "setting": "[33]", "value": "> 100 µM (inactive)"},
      {"measurement": "GI50", "setting": "[34]", "value": "> 100 µM (inactive)"},
      {"measurement": "GI50", "setting": "[35]", "value": "> 100 µM (inactive)"},
      {"measurement": "GI50", "setting": "[36]", "value": "> 100 µM (inactive)"},
      {"measurement": "GI50", "setting": "[37]", "value": "> 100 µM (inactive)"},
      {"measurement": "GI50", "setting": "[38]", "value": "> 100 µM (inactive)"},
      {"measurement": "GI50", "setting": "[39]", "value": "> 100 µM (inactive)"},
      {"measurement": "GI50", "setting": "[40]", "value": "> 100 µM (inactive)"},
      {"measurement": "GI50", "setting": "[41]", "value": "> 100 µM (inactive)"},
      {"measurement": "GI50", "setting": "[42]", "value": "> 100 µM (inactive)"},
      {"measurement": "GI50", "setting": "[43]", "value": "> 100 µM (inactive)"},
      {"measurement": "GI50", "setting": "[44]", "value": "> 100 µM (inactive)"},
      {"measurement": "GI50", "setting": "[45]", "value": "> 100 µM (inactive)"},
      {"measurement": "GI50", "setting": "[46]", "value": "> 100 µM (inactive)"},
      {"measurement": "GI50", "setting": "[47]", "value": "> 100 µM (inactive)"},
      {"measurement": "GI50", "setting": "[48]", "value": "> 100 µM (inactive)"},
      {"measurement": "GI50", "setting": "[49]", "value": "> 100 µM (inactive)"},
      {"measurement": "GI50", "setting": "[50]", "value": "> 100 µM (inactive)"},
      {"measurement": "GI50", "setting": "[51]", "value": "> 100 µM (inactive)"},
      {"measurement": "GI50", "setting": "[52]", "value": "> 100 µM (inactive)"},
      {"measurement": "GI50", "setting": "[53]", "value": "> 100 µM (inactive)"},
      {"measurement": "GI50", "setting": "[54]", "value": "> 100 µM (inactive)"},
      {"measurement": "GI50", "setting": "[55]", "value": "> 100 µM (inactive)"},
      {"measurement": "GI50", "setting": "[56]", "value": "> 100 µM (inactive)"},
      {"measurement": "GI50", "setting": "[57]", "value": "> 100 µM (inactive)"},
      {"measurement": "GI50", "setting": "[58]", "value": "> 100 µM (inactive)"}
    ]}
  ]
}
